Test results as given in patent US20140296212A1, “SUBSTITUTED PHENOXYPROPYLCYCLOAMINE DERIVATIVES AS HISTAMINE-3 (H3) RECEPTOR LIGANDS” (CEPHALON, INC., priority 2009, published 2014).

Assays:
[1] = target: T1, rat histamine H3 receptor (Rattus norvegicus, UniProt Q9QYN8); test: Rat H3 radioligand binding ([3H]-N-alpha-methylhistamine, SPA); settings: membranes of CHO-A3 cells expressing rat H3; [3H]-N-alpha-methylhistamine; read-out: Rat H3 Ki
T1 construct: encoding the entire 445-amino-acid rat histamine H3 receptor; expressed in transfected cells
Method in brief: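 Membranes from CHO-A3 cells stably expressing full-length rat H3 receptor (445 aa) incubated with ~1 nM [3H]-N-alpha-methylhistamine and compound (0.01 nM–30 μM) in 50 mM Tris HCl pH 7.4, 5 mM MgCl2, 0.1% BSA, 4 h, room temperature; SPA bead read-out. Non-specific binding defined with 10 μM clobenpropit.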

human H3 receptor = target: T2, human H3 receptor (Homo sapiens, UniProt Q9Y5N1); test: Human H3 radioligand binding ([3H]-N-alpha-methylhistamine, SPA); settings: membranes of CHO cells expressing human H3
T2 construct: expressed in transfected cells
Method in brief: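 Membranes from H3-expressing cells (10 μg protein/well) in 50 mM Tris HCl pH 7.4, 5 mM MgCl2, 0.1% BSA with ~1 nM [3H]-N-alpha-methylhistamine and compound (0.01 nM–30 μM), SPA beads, 4 h, room temperature, dark. Non-specific binding defined with 10 μM clobenpropit; bound radioligand read by scintillation counting.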

T1 sequence (Q9QYN8 whole entry): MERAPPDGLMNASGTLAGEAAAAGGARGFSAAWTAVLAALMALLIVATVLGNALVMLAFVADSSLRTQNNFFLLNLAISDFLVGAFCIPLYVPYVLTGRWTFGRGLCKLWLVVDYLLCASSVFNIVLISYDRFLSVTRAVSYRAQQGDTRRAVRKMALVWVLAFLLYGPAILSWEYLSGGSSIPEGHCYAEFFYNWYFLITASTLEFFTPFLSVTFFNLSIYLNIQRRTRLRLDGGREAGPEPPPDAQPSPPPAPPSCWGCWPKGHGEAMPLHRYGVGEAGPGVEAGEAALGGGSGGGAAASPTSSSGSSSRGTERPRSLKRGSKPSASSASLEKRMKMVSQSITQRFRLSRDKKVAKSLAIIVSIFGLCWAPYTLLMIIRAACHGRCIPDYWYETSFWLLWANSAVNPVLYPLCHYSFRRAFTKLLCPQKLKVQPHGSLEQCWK
T2 sequence (Q9Y5N1 whole entry): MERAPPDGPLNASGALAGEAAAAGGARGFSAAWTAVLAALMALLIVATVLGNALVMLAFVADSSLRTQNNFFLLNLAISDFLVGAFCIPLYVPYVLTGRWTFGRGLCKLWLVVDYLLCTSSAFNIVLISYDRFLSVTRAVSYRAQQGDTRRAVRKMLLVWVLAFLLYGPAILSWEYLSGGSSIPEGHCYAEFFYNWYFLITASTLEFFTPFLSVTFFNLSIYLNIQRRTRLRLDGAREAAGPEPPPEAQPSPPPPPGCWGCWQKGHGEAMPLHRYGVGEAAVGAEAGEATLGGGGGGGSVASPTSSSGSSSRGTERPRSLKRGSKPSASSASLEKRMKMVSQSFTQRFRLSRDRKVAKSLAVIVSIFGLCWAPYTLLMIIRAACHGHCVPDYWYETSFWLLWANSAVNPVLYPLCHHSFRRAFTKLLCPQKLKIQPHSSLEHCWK

Structure (SMILES) | Ki [1] | Ki (human H3 receptor) | melting point
C[C@@H]1CCCN1CCCOc1ccc(C(=O)CN2CCN(c3ccc(C(F)(F)F)cc3)CC2)cc1 [Example 105, 1-{4-[3-((R)-2-Methyl-pyrrolidin-1-yl)-propoxy]-phenyl}-2-[4-(4-trifluoromethyl-phenyl)-piperazin-1-yl]-ethanone] | 0.1 to 100 nM | 0.1 to 100 nM | 230 to 233 °C
Cc1cc(C(=O)CN2CCN(C(=O)c3ccccc3)CC2)cc(C)c1OCCCN1CCC[C@H]1C [Example 106, 2-(4-Benzoyl-piperazin-1-yl)-1-{3,5-dimethyl-4-[3-((R)-2-methyl-pyrrolidin-1-yl)-propoxy]-phenyl}-ethanone] | 101 to 500 nM | 0.1 to 100 nM | 110 to 120 °C
C[C@@H]1CCCN1CCCOc1ccc(C(=O)CN2CCCc3ccccc32)cc1 [Example 108, 2-(3,4-Dihydro-2H-quinolin-1-yl)-1-{4-[3-((R)-2-methyl-pyrrolidin-1-yl)-propoxy]-phenyl}-ethanone] | 0.1 to 100 nM | 0.1 to 100 nM | 166 to 168 °C
C[C@@H]1CCCN1CCCOc1ccc(C(=O)CN2CCN(C(=O)c3ccc4ccccc4c3)CC2)cc1 [Example 109, 1-{4-(3-((R)-2-Methyl-pyrrolidin-1-yl)-propoxy]-phenyl}-2-[4-(naphthalene-2-carbonyl)-piperazin-1-yl]-ethanone] | 0.1 to 100 nM | 0.1 to 100 nM | 100.5 to 109.5 °C
CC(=O)N1CCN(CC(=O)c2cc(Cl)c(OCCCN3CCC[C@H]3C)c(Cl)c2)CC1 [Example 110, 2-(4-Acetyl-piperazin-1-yl)-1-{3,5-dichloro-4-[3-((R)-2-methyl-pyrrolidin-1-yl)-propoxy]-phenyl}-ethanone] | 101 to 500 nM | 101 to 500 nM | 115 °C
C[C@@H]1CCCN1CCCOc1c(Cl)cc(C(=O)CN2CCN(c3ncccn3)CC2)cc1Cl [Example 111, 1-{3,5-Dichloro-4-[3-((R)-2-methyl-pyrrolidin-1-yl)-propoxy]-phenyl}-2-(4-pyrimidin-2-yl-piperazin-1-yl)-ethanone] | 101 to 500 nM | 0.1 to 100 nM | 177 °C
C[C@@H]1CCCN1CCCOc1ccc(C(=O)CN2CCN(C(=O)c3ccccc3)CC2)cc1Cl [Example 113, 2-(4-Benzoyl-piperazin-1-yl)-1-{3-chloro-4-[3-((R)-2-methyl-pyrrolidin-1-yl)-propoxy]-phenyl}-ethanone] | 0.1 to 100 nM | 0.1 to 100 nM | 130 to 137 °C
C[C@@H]1CCCN1CCCOc1ccc(C(=O)CN2CCCCc3ccccc32)cc1 [Example 114, 1-{4-[3-((R)-2-Methyl-pyrrolidin-1-yl)-propoxy]-phenyl}-2-(2,3,4,5-tetrahydro-benzo[b]azepin-1-yl)-ethanone] | 0.1 to 100 nM | 0.1 to 100 nM | 90 to 96 °C
CCOC(=O)N1CCN(CC(=O)c2ccc(OCCCN3CCC[C@H]3C)cc2)CC1 [Example 115, 4-(2-{4-[3-((R)-2-Methyl-pyrrolidin-1-yl)-propoxy]-phenyl}-2-oxo-ethyl)-piperazine-1-carboxylic acid ethyl ester] | 0.1 to 100 nM | 0.1 to 100 nM | 218 to 219 °C
C[C@@H]1CCCN1CCCOc1ccc(C(=O)CN2CCN(c3ccccn3)CC2)cc1 [Example 116, 1-{4-[3-((R)-2-Methyl-pyrrolidin-1-yl)-propoxy]-phenyl}-2-(4-pyridin-2-yl-piperazin-1-yl)-ethanone] | 0.1 to 100 nM | 0.1 to 100 nM | 239 to 242 °C
C[C@@H]1CCCN1CCCOc1ccc(C(=O)CN2CCN(C(=O)OC(C)(C)C)CC2)cc1 [Example 117, 4-(2-{4-[3-((R)-2-Methyl-pyrrolidin-1-yl)-propoxy]-phenyl}-2-oxo-ethyl)-piperazine-1-carboxylic acid tert-butyl ester] | 0.1 to 100 nM | 0.1 to 100 nM | 198 to 199 °C
CC(C)C(=O)N1CCN(CC(=O)c2ccc(OCCCN3CCC[C@H]3C)c(Cl)c2)CC1 [Example 118, 1-[4-(2-{3-Chloro-4-[3-((R)-2-methyl-pyrrolidin-1-yl)-propoxy]-phenyl}-2-oxo-ethyl)-piperazin-1-yl]-2-methyl-propan-1-one] | 0.1 to 100 nM | 0.1 to 100 nM | 140 °C (dec.)
C[C@@H]1CCCN1CCCOc1ccc(C(=O)CN2CCN(c3ncccn3)CC2)cc1F [Example 119, 1-{3-Fluoro-4-[3-((R)-2-methyl-pyrrolidin-1-yl)-propoxy]-phenyl}-2-(4-pyrimidin-2-yl-piperazin-1-yl)-ethanone] | 0.1 to 100 nM | 0.1 to 100 nM | 219 °C
C[C@@H]1CCCN1CCCOc1ccc(C(=O)CN2CCN(C(=O)c3ccccc3)CC2)cc1F [Example 120, 2-(4-Benzoyl-piperazin-1-yl)-1-{3-fluoro-4-[3-((R)-2-methyl-pyrrolidin-1-yl)-propoxy]-phenyl}-ethanone] | 0.1 to 100 nM | 0.1 to 100 nM | 96 °C
CC(C)C(=O)N1CCN(CC(=O)c2ccc(OCCCN3CCC[C@H]3C)c(F)c2)CC1 [Example 121, 1-[4-(2-{3-Fluoro-4-[3-((R)-2-methyl-pyrrolidin-1-yl)-propoxy]-phenyl}-2-oxoethyl)-piperazin-1-yl]-2-methyl-propan-1-one] | 0.1 to 100 nM | 0.1 to 100 nM | 75 °C
C[C@@H]1CCCN1CCCOc1ccc(C(=O)CN2CCN(S(C)(=O)=O)CC2)cc1F [Example 122, 1-{3-Fluoro-4-[3-((R)-2-methyl-pyrrolidin-1-yl)-propoxy]-phenyl}-2-(4-methanesulfonyl-piperazin-1-yl)-ethanone] | 0.1 to 100 nM | 0.1 to 100 nM | 86 °C
C[C@@H]1CCCN1CCCOc1ccc(C(=O)CN2CCN(C(=O)N(C)C)CC2)cc1F [Example 123] | 0.1 to 100 nM | 0.1 to 100 nM | 81 °C
C[C@@H]1CCCN1CCCOc1ccc(C(=O)CN2CCN(C(=O)c3cc4ccccc4s3)CC2)cc1 [Example 124, 2-[4-(Benzo[b]thiophene-2-carbonyl)-piperazin-1-yl]-1-{4-[3-((R)-2-methyl-pyrrolidin-1-yl)-propoxy]-phenyl}-ethanone] | 0.1 to 100 nM | 0.1 to 100 nM | 214 to 217 °C
C[C@@H]1CCCN1CCCOc1ccc(C(=O)CN2CCN(c3ncccn3)CC2)cc1Cl [Example 125, 1-{3-Chloro-4-[3-((R)-2-methyl-pyrrolidin-1-yl)-propoxy]-phenyl}-2-(4-pyrimidin-2-yl-piperazin-1-yl)-ethanone] | 101 to 500 nM | 0.1 to 100 nM | 112 to 114 °C
C[C@@H]1CCCN1CCCOc1ccc(C(=O)CN2CCN(C(=O)c3ccc(F)cc3F)CC2)cc1 [Example 126, 2-[4-(2,4-Difluoro-benzoyl)-piperazin-1-yl]-1-{4-[3-((R)-2-methyl-pyrrolidin-1-yl)-propoxy]-phenyl}-ethanone] | 0.1 to 100 nM | 0.1 to 100 nM | 115 to 117 °C
COC(=O)N1CCN(CC(=O)c2ccc(OCCCN3CCC[C@H]3C)c(F)c2)CC1 [Example 127, 4-(2-{3-Fluoro-4-[3-((R)-2-methyl-pyrrolidin-1-yl)-propoxy]-phenyl}-2-oxo-ethyl)-piperazine-1-carboxylic acid methyl ester] | 0.1 to 100 nM | 0.1 to 100 nM | 236 °C
C[C@@H]1CCCN1CCCOc1ccc(C(=O)CN2CCN(C(=O)Oc3ccccc3)CC2)cc1 [Example 128, 4-(2-{4-[3-((R)-2-Methyl-pyrrolidin-1-yl)-propoxy]-phenyl}-2-oxo-ethyl)-piperazine-1-carboxylic acid phenyl ester] | 0.1 to 100 nM | 0.1 to 100 nM | 194 to 199 °C
C[C@@H]1CCCN1CCCOc1ccc(C(=O)CN2CCN(C(=O)c3ccc(Cl)c(Cl)c3)CC2)cc1 [Example 129, 2-[4-(3,4-Dichloro-benzoyl)-piperazin-1-yl]-1-{4-[3-((R)-2-methyl-pyrrolidin-1-yl)-propoxy]-phenyl}-ethanone] | 0.1 to 100 nM | 0.1 to 100 nM | 88 to 90.5 °C
Cc1cc(C(=O)CN2CCN(c3ncccn3)CC2)ccc1OCCCN1CCC[C@H]1C [Example 130, 1-{3-Methyl-4-[3-((R)-2-methyl-pyrrolidin-1-yl)-propoxy]-phenyl}-2-(4-pyrimidin-2-yl-piperazin-1-yl)-ethanone] | 0.1 to 100 nM | 0.1 to 100 nM | 231.5 to 235 °C
COC(=O)N1CCN(CC(=O)c2ccc(OCCCN3CCC[C@H]3C)c(Cl)c2)CC1 [Example 132, 4-(2-{3-Chloro-4-[3-((R)-2-methyl-pyrrolidin-1-yl)-propoxy]-phenyl}-2-oxo-ethyl)-piperazine-1-carboxylic acid methyl ester] | 101 to 500 nM | 0.1 to 100 nM | 122 to 124 °C
C[C@@H]1CCCN1CCCOc1ccc(C(=O)CN2CCC(F)(F)CC2)cc1Cl [Example 134, 1-{3-Chloro-4-[3-((R)-2-methyl-pyrrolidin-1-yl)-propoxy]-phenyl}-2-(4,4-difluoro-piperidin-1-yl)-ethanone] | 101 to 500 nM | 0.1 to 100 nM | 130 to 143 °C
CC(=O)N1CCN(CC(=O)c2ccc(OCCCN3CCC[C@H]3C)c(Cl)c2)CC1 [Example 135, 2-(4-Acetyl-piperazin-1-yl)-1-{3-chloro-4-[3-((R)-2-methyl-pyrrolidin-1-yl)-propoxy]-phenyl}-ethanone] | 0.1 to 100 nM | 0.1 to 100 nM | 113 to 128 °C
